Molecules are shown by their SMILES.

For data set [1] the following is noted: isolated from filtrates of 4 to 6 week old culture of P. aeruginosa; cited from earlier work.
The nature of data set [2]: Micelle formation upon mixing with FeCl3 (brightfield microscopy). Format: physicochemical. Conditions: 0.2 M in ethanol mixed with 0.2 M FeCl3 in ethanol, 3/1 ratio, reduced to half volume. The text has this:
Micelle formation. […] Also, synthesized pseudan IX, 0.2 M in ethanol, was mixed with 0.2 M FeCl3 in ethanol in a 3/1 ratio. Following reduction to half the volume using a nitrogen bubbler, micelles were observed as above. An Olympus BX-60 microscope and an Optronics DEI 750 camera were used.

In the case of `CCCCCCCCCc1cc(O)c2ccccc2n1` [pseudan IX, 4-hydroxy-2-nonylquinoline], the antibiotic activity entry in data set [1] is reported as “shown to exhibit antibiotic activity”. Further, the “micelle formation with iron” value in data set [2] is reported as “Pink micelles, albeit smaller, are also evident”.
